Data published in patent US12077503B2, “Substituted cyclic amides and their use as herbicides” (FMC CORPORATION, priority 2015, dated 2024).

Legend:
Type in all cases: in vivo
[1] = system: Kochia (Kochia scoparia); assay: Test A preemergence; settings: Bassia scoparia, pre-emergence, 240 h, 0 to 100 scale where 0 is no effect and 100 is complete control, read-out: Kochia plant response rating
In short: (§1)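 Greenhouse, ~10 d after spray; visual injury vs untreated controls, 0 = no effect, 100 = complete control. Preemergence: directed soil spray over planted seeds. Postemergence: plants 2–10 cm, 1–2 leaf stage. Loam/sand blend. Compound in non-phytotoxic solvent with surfactant.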

[2] = system: barnyardgrass (Echinochloa crus-galli); assay: Test A preemergence; settings: Echinochloa crus-galli, pre-emergence, 240 h, 0 to 100 scale where 0 is no effect and 100 is complete control, read-out: Barnyardgrass plant response rating
In short: as §1

[3] = system: giant foxtail (Setaria faberii); assay: Test A preemergence; settings: Setaria faberi, pre-emergence, 240 h, 0 to 100 scale where 0 is no effect and 100 is complete control, read-out: Foxtail, Giant plant response rating
In short: as §1

[4] = system: pigweed (Amaranthus retroflexus); assay: Test A preemergence; settings: Amaranthus retroflexus, pre-emergence, 240 h, 0 to 100 scale where 0 is no effect and 100 is complete control, read-out: Pigweed plant response rating
[5] = system: ragweed (common ragweed, Ambrosia elatior); assay: Test A preemergence; settings: Ambrosia artemisiifolia, pre-emergence, 240 h, 0 to 100 scale where 0 is no effect and 100 is complete control, read-out: Ragweed plant response rating
In short: as §1

[6] = system: ryegrass, Italian (Italian ryegrass, Lolium multiflorum); assay: Test A preemergence; settings: Lolium multiflorum, pre-emergence, 240 h, 0 to 100 scale where 0 is no effect and 100 is complete control, read-out: Ryegrass, Italian plant response rating
In short: as §1

[7] = system: Galium (catchweed bedstraw, Galium aparine); assay: Test A postemergence; settings: Galium, post-emergence, 240 h, read-out: Galium plant response rating (0 to 100 scale)
In short: as §1

[8] = system: Kochia (Kochia scoparia); assay: Test A postemergence; settings: Bassia scoparia, post-emergence, 240 h, read-out: Kochia plant response rating (0 to 100 scale)
In short: as §1

[9] = system: barnyardgrass (Echinochloa crus-galli); assay: Test A postemergence; settings: Echinochloa crus-galli, post-emergence, 240 h, read-out: Barnyardgrass plant response rating (0 to 100 scale)
In short: as §1

[10] = system: blackgrass (Alopecurus myosuroides); assay: Test A postemergence; settings: Alopecurus myosuroides, post-emergence, 240 h, read-out: Blackgrass plant response rating (0 to 100 scale)
In short: as §1

[11] = system: corn (Zea mays); assay: Test A postemergence; settings: Zea mays, post-emergence, 240 h, read-out: Corn plant response rating (0 to 100 scale)
In short: as §1

[12] = system: giant foxtail (Setaria faberii); assay: Test A postemergence; settings: Setaria faberi, post-emergence, 240 h, read-out: Foxtail, Giant plant response rating (0 to 100 scale)
In short: as §1

[13] = system: pigweed (Amaranthus retroflexus); assay: Test A postemergence; settings: Amaranthus retroflexus, post-emergence, 240 h, read-out: Pigweed plant response rating (0 to 100 scale)
In short: as §1

[14] = system: ragweed (common ragweed, Ambrosia elatior); assay: Test A postemergence; settings: Ambrosia artemisiifolia, post-emergence, 240 h, read-out: Ragweed plant response rating (0 to 100 scale)
In short: as §1

[15] = system: ryegrass, Italian (Italian ryegrass, Lolium multiflorum); assay: Test A postemergence; settings: Lolium multiflorum, post-emergence, 240 h, read-out: Ryegrass, Italian plant response rating (0 to 100 scale)
In short: as §1

[16] = system: wheat (Triticum aestivum); assay: Test A postemergence; settings: Triticum aestivum, post-emergence, 240 h, read-out: Wheat plant response rating (0 to 100 scale)
In short: as §1

[17] = system: barnyardgrass (Echinochloa crus-galli); assay: Test B flooded paddy test; settings: Echinochloa crus-galli, 250 g ai/ha, Flood; 0 to 100 scale where 0 is no effect and 100 is complete control; read-out: Barnyardgrass plant response rating
In short: (§2)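 Flooding to 3 cm over soil accompanied treatment, which consisted of adding compound to the standing water around 2-leaf plants; depth was then maintained. Visual assessment versus controls followed at 13 to 15 d (scale 0–100, 0 meaning no effect).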

[18] = system: ducksalad (Heteranthera limosa); assay: Test B flooded paddy test; settings: Heteranthera limosa, 250 g ai/ha, Flood; 0 to 100 scale where 0 is no effect and 100 is complete control; read-out: Ducksalad plant response rating
In short: as §2

[19] = system: rice (Oryra sativa); assay: Test B flooded paddy test; settings: Oryza sativa, 250 g ai/ha, Flood; 0 to 100 scale where 0 is no effect and 100 is complete control; read-out: Rice plant response rating
In short: as §2

[20] = system: sedge, umbrella (small-flower umbrella sedge, Cyperus difformis); assay: Test B flooded paddy test; settings: Cyperus difformis, 250 g ai/ha, Flood; 0 to 100 scale where 0 is no effect and 100 is complete control; read-out: Sedge, Umbrella plant response rating
In short: as §2

[21] = 125 g ai/ha, preemergence, visual injury rating, approximately 10 d
[22] = 125 g ai/ha, postemergence, visual injury vs untreated controls after approx. 10 d, 0 = no effect, 100 = complete control
[23] = Postemergence, 31 g ai/ha, 0 is no effect, 100 is complete control

Cc1cc([C@H]2CN(C)C(=O)[C@@H]2C(=O)Nc2cccc(F)c2F)no1 [Compound 1237]
pest or weed control at 31 g/ha ([1]; 31 g ai/ha, Preemergence): 0% | pest or weed control at 125 g/ha [1, 21]: 0% | pest or weed control at 31 g/ha ([2]; 31 g ai/ha, Preemergence): 0% | pest or weed control at 125 g/ha [2, 21]: 70% | pest or weed control at 31 g/ha ([3]; 31 g ai/ha, Preemergence): 20% | pest or weed control at 125 g/ha [3, 21]: 60% | pest or weed control at 31 g/ha ([4]; 31 g ai/ha, Preemergence): 0% | pest or weed control at 125 g/ha [4, 21]: 0% | pest or weed control at 31 g/ha ([5]; 31 g ai/ha, Preemergence): 0% | pest or weed control at 125 g/ha [5, 21]: 0% | pest or weed control at 31 g/ha ([6]; 31 g ai/ha, Preemergence): 0% | pest or weed control at 125 g/ha [6, 21]: 0% | pest or weed control at 125 g/ha [7, 22]: 0% | pest or weed control at 31 g/ha [7, 23]: 0% | pest or weed control at 125 g/ha [8, 22]: 0% | pest or weed control at 31 g/ha [8, 23]: 0% | pest or weed control at 125 g/ha [9, 22]: 20% | pest or weed control at 31 g/ha [9, 23]: 0% | pest or weed control at 125 g/ha [10, 22]: 0% | pest or weed control at 31 g/ha [10, 23]: 0% | plant injury at 125 g/ha [11, 22]: 0% | plant injury at 31 g/ha [11, 23]: 0% | pest or weed control at 125 g/ha [12, 22]: 20% | pest or weed control at 31 g/ha [12, 23]: 0% | pest or weed control at 125 g/ha [13, 22]: 0% | pest or weed control at 31 g/ha [13, 23]: 0% | pest or weed control at 125 g/ha [14, 22]: 0% | pest or weed control at 31 g/ha [14, 23]: 0% | pest or weed control at 125 g/ha [15, 22]: 0% | pest or weed control at 31 g/ha [15, 23]: 0% | plant injury at 125 g/ha [16, 22]: 0% | plant injury at 31 g/ha [16, 23]: 0% | pest or weed control at 250 g/ha [17]: 0% | pest or weed control at 250 g/ha [18]: 65% | pest or weed control at 250 g/ha [19]: 0% | pest or weed control at 250 g/ha [20]: 0%
